Measured values taken from the NIST ThermoML archive (doi:10.1021/je5007532).

How the values were obtained:
[1] = for viscosity: 100 kPa, Falling or rolling sphere viscometry; for viscosity / speed of sound / mass density: Liquid; for speed of sound / mass density: 101 kPa; for speed of sound: Sing-around technique in a fixed-path interferometer; for mass density: Vibrating tube method; for surface tension liquid-gas: 294.4 K, Pendant drop shape
[2] = xn = mol fraction of the nth substance listed; conditions: x2 = 0; for viscosity: 100 kPa, Falling or rolling sphere viscometry; for viscosity / speed of sound / mass density: Liquid; for speed of sound / mass density: 101 kPa; for speed of sound: Sing-around technique in a fixed-path interferometer; for mass density: Vibrating tube method

CC(C)CC(C)(C)C [2,2,4-trimethylpentane]
[1]
Conditions	mass density [kg/m3]	speed of sound [m/s]	viscosity [mPa·s]
293.15 K	691.84	1103.2	0.501
298.15 K	687.7	1082	0.473
303.15 K	683.59	1061.4	0.447
308.15 K	679.4	1040.4	0.423
313.15 K	675.23	1020	–
318.15 K	670.98	999.3	0.38
323.15 K	666.75	979.2	0.361
328.15 K	662.44	958.7	0.343
333.15 K	658.16	938.6	0.326
338.15 K	653.8	918.7	–
343.15 K	649.4	899	–

Conditions	surface tension liquid-gas [mN/m]
[1]	18.7

CCCCCCC [heptane]
[1]
Conditions	mass density [kg/m3]	speed of sound [m/s]	viscosity [mPa·s]
293.15 K	683.85	1151.7	0.41
298.15 K	679.61	1130.1	0.389
303.15 K	675.35	1109.1	0.368
308.15 K	671.05	1087.5	0.349
313.15 K	666.73	1066.6	–
318.15 K	662.38	1045.4	0.315
323.15 K	657.99	1024.7	0.3
328.15 K	653.57	1003.6	0.284
333.15 K	649.11	983	0.271
338.15 K	644.6	962.3	–

Conditions	surface tension liquid-gas [mN/m]
[1]	20.3

CCCCCCC [heptane] + CC(C)CC(C)(C)C
[2]
Conditions	mass density [kg/m3]	speed of sound [m/s]	viscosity [mPa·s]
293.15 K	683.85	1151.7	0.41
298.15 K	679.61	1130.1	0.389
303.15 K	675.35	1109.1	0.368
308.15 K	671.05	1087.5	0.349
313.15 K	666.73	1066.6	–
318.15 K	662.38	1045.4	0.315
323.15 K	657.99	1024.7	0.3
328.15 K	653.57	1003.6	0.284
333.15 K	649.11	983	0.271
338.15 K	644.6	962.3	–

Conditions	surface tension liquid-gas [mN/m]
[2], 294.4 K, Pendant drop shape	20.3
